Among the data in PubChem BioAssay (NCI) are TGI values, retold here.

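These data come from cells grown in 96-well plates and exposed to compound for 48 hours at five concentrations. The concentration for full growth arrest is given as TGI.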

Some test systems named below: BT-549 breast; RPMI-8226 leukemia; KM12 colon; OVCAR-8 ovarian; UACC-62 melanoma; MCF7 breast; A549 NSCLC; MOLT-4 leukemia; SR leukemia; SN12C renal.
What all share (experiment): DTP human tumour cell line panel, 48 h

Take `C=CCOC(=O)c1c(C)n([O-])c2cc(Cl)c(Cl)cc2[n+]1=O`: the TGI in the test on BT-549 breast was found to be 75.3 µM; in the test with RPMI-8226 leukemia, 33.9 µM; in the test with KM12 colon, 84.7 µM; in the test with OVCAR-8 ovarian it was 41.9 µM; in the test with UACC-62 melanoma it was 41.3 µM; in the test on MCF7 breast, 60.8 µM. Besides, the TGI in the test on A549 NSCLC stood at 87.7 µM; in the test with MOLT-4 leukemia, 54.4 µM; with SR leukemia, 13.1 µM; with SN12C renal it was 54.7 µM.
As for `N#CCCN(CCC#N)c1ccc(/C=C2\SC(=S)NC2=O)cc1`, the concentration for total growth inhibition (TGI) was 84.3 µM in the test on BT-549 breast; above 100 µM in the test with RPMI-8226 leukemia; above 100 µM in the test on KM12 colon; above 100 µM in the test with OVCAR-8 ovarian; above 100 µM in the test with UACC-62 melanoma; above 100 µM with MCF7 breast. Further, the TGI with A549 NSCLC, in the test on MOLT-4 leukemia, with SR leukemia and in the test on SN12C renal was above 100 µM in each case.
On to `O=C1CCCCC/C1=C\c1cccc([N+](=O)[O-])c1`, for which the TGI in the test with BT-549 breast is 72.8 µM; with RPMI-8226 leukemia it was 78.1 µM; in the test on KM12 colon it was 56.1 µM; with OVCAR-8 ovarian it was above 100 µM; in the test on UACC-62 melanoma it was 67.6 µM; in the test with MCF7 breast, above 100 µM. Moreover, the concentration for total growth inhibition (TGI) in the test on A549 NSCLC was above 100 µM; in the test on MOLT-4 leukemia, 83.5 µM; with SR leukemia it was 39.9 µM; with SN12C renal, above 100 µM.
In the case of `NC(=S)Nc1ccc2c(c1)oc1ccccc12`, the concentration for total growth inhibition (TGI) with BT-549 breast, in the test with RPMI-8226 leukemia, in the test with KM12 colon, with OVCAR-8 ovarian, in the test on UACC-62 melanoma and in the test on MCF7 breast was above 100 µM each time. The TGI in the test on A549 NSCLC, in the test on MOLT-4 leukemia, in the test with SR leukemia and in the test with SN12C renal was above 100 µM each time.
`COc1ccc(C(=O)c2c(-c3ccccc3NC(=O)C(F)(F)F)[nH]c3ccccc23)cc1`: the TGI in the test with BT-549 breast was found to be 29 µM; in the test on RPMI-8226 leukemia, 27.2 µM; in the test on KM12 colon, 21.8 µM; in the test on OVCAR-8 ovarian, 23.5 µM; in the test with UACC-62 melanoma, 25.8 µM; with MCF7 breast, 17.2 µM. Moreover, the TGI in the test with A549 NSCLC was 20.2 µM; in the test with MOLT-4 leukemia it was 10.6 µM; in the test with SR leukemia, 8.62 µM; in the test on SN12C renal, 28.3 µM.
On to `O=C1C(C(c2ccc([N+](=O)[O-])cc2)N2CCOCC2)=C(O)C(c2ccccc2)N1c1ccccc1` (stereo not given), for which the TGI in the test with BT-549 breast, with RPMI-8226 leukemia, in the test with KM12 colon, with OVCAR-8 ovarian, in the test with UACC-62 melanoma and with MCF7 breast was above 10 µM in each case. Besides, the TGI with A549 NSCLC, with MOLT-4 leukemia, in the test with SR leukemia and in the test with SN12C renal was above 10 µM in each case.
On to `C/C(=N/NC(=S)Nc1cccc(Cl)c1)c1ccccn1`, for which the total growth inhibition concentration (TGI) worked out at 16 µM in the test with BT-549 breast; 17.8 µM with RPMI-8226 leukemia; 13.5 µM in the test with KM12 colon; 9.29 µM in the test on OVCAR-8 ovarian; 2.49 µM in the test with UACC-62 melanoma; 5.17 µM in the test with MCF7 breast. For the same compound, the TGI in the test on A549 NSCLC was 10.1 µM; in the test with MOLT-4 leukemia it was 1.47 µM; in the test with SR leukemia, 1.99 µM; in the test on SN12C renal, 7.04 µM.
For `Nc1ncnc2c1ncn2C1OC(CO)C(O)C1NS(=O)(=O)c1ccccc1` (stereo not given), the TGI with BT-549 breast, with RPMI-8226 leukemia, with KM12 colon, in the test with OVCAR-8 ovarian, with UACC-62 melanoma and in the test on MCF7 breast was above 100 µM throughout. Also, the TGI in the test with A549 NSCLC, in the test on MOLT-4 leukemia, in the test on SR leukemia and with SN12C renal was above 100 µM throughout.
On to `CCn1c(-c2ccc(OC)cc2)nc2c1C(=O)c1ccccc1C2=O`, for which the TGI in the test on BT-549 breast, in the test on RPMI-8226 leukemia, in the test on KM12 colon, in the test on OVCAR-8 ovarian, with UACC-62 melanoma and with MCF7 breast was above 100 µM each time. In addition, the TGI in the test with A549 NSCLC, in the test with MOLT-4 leukemia, with SR leukemia and with SN12C renal was above 100 µM each time.
As to `O=C(NNS(=O)(=O)c1ccc(Br)cc1)c1ccc(Cl)cc1NC(=O)C12CC3CC(CC(C3)C1)C2`, the TGI in the test on BT-549 breast is 34.8 µM; with RPMI-8226 leukemia it was 24 µM; with KM12 colon it was 85.7 µM; in the test with OVCAR-8 ovarian it was 31.9 µM; in the test with UACC-62 melanoma it was 25.6 µM; with MCF7 breast, 34.1 µM. Moreover, the TGI with A549 NSCLC turned out to be 21.4 µM; in the test on MOLT-4 leukemia, 73.9 µM; in the test on SR leukemia it was 35.5 µM; in the test on SN12C renal it was 36.1 µM.
For `CC(C)NCC(O)c1ccc(O)c2ncccc12` (stereo not given), the TGI in the test on BT-549 breast, with RPMI-8226 leukemia, in the test with KM12 colon, in the test on OVCAR-8 ovarian, with UACC-62 melanoma and in the test with MCF7 breast was above 100 µM in each case. Also, the TGI in the test with A549 NSCLC was above 100 µM; in the test on MOLT-4 leukemia it was 46.9 µM; in the test on SR leukemia, 67.6 µM; in the test with SN12C renal it was above 100 µM.
In the case of `c1ccc(C(c2cccc3c2ccc2ccccc23)C(c2ccccc2)c2cccc3c2ccc2ccccc23)cc1` (stereo not given), the TGI in the test on BT-549 breast, with RPMI-8226 leukemia, in the test with KM12 colon, in the test with OVCAR-8 ovarian, in the test with UACC-62 melanoma and in the test on MCF7 breast was above 100 µM in each case. The TGI with A549 NSCLC, in the test with MOLT-4 leukemia, with SR leukemia and in the test on SN12C renal was above 100 µM in each case.
Turning to `O=C(N/N=C\c1cccs1)c1ccncc1`, the TGI in the test with BT-549 breast, in the test on RPMI-8226 leukemia, in the test on KM12 colon, in the test with OVCAR-8 ovarian, in the test with UACC-62 melanoma and with MCF7 breast was above 100 µM each time. Also, the TGI in the test with A549 NSCLC, in the test on MOLT-4 leukemia, with SR leukemia and in the test with SN12C renal was above 100 µM throughout.
As for `CCCCC(=C=C(C)CO)C1CCCN1C(=O)OC(C)(C)C` (stereo not given), the TGI was 31.8 µM with BT-549 breast; 36.8 µM with RPMI-8226 leukemia; 34.8 µM in the test with KM12 colon; 37.3 µM in the test with OVCAR-8 ovarian; 26.9 µM in the test on UACC-62 melanoma; 43.5 µM in the test with MCF7 breast. The TGI with A549 NSCLC amounted to 48.1 µM; in the test with MOLT-4 leukemia, 33.8 µM; with SR leukemia it was 31.5 µM; in the test with SN12C renal, 31.5 µM.
As to `CCOC(=O)C1(C#N)C2(C#N)C(N)=NC(ON=C(C)C)(ON=C(C)C)C12C#N` (stereo not given), the TGI in the test with BT-549 breast, in the test on RPMI-8226 leukemia, in the test with KM12 colon, in the test on OVCAR-8 ovarian, in the test on UACC-62 melanoma and in the test with MCF7 breast was above 100 µM throughout. Moreover, the TGI in the test on A549 NSCLC, in the test with MOLT-4 leukemia, in the test on SR leukemia and with SN12C renal was above 100 µM each time.
Take `O=C(/C=C/c1ccc(OCc2ccccc2)cc1)NCc1ccc(C(=O)NCc2ccccc2)cc1`: the total growth inhibition concentration (TGI) in the test with BT-549 breast, with RPMI-8226 leukemia, in the test with KM12 colon, in the test on OVCAR-8 ovarian, in the test on UACC-62 melanoma and in the test on MCF7 breast was above 100 µM throughout. For the same compound, the TGI in the test with A549 NSCLC, with MOLT-4 leukemia, in the test with SR leukemia and with SN12C renal was above 100 µM in each case.
On to `Cc1nc(N)sc1C(=O)Nc1ncn[nH]1`, for which the total growth inhibition concentration (TGI) in the test with BT-549 breast, in the test with RPMI-8226 leukemia, in the test with KM12 colon, in the test with OVCAR-8 ovarian, in the test with UACC-62 melanoma and in the test with MCF7 breast was above 100 µM each time. For the same compound, the TGI in the test with A549 NSCLC is above 100 µM; with MOLT-4 leukemia it was above 100 µM; with SR leukemia, 70 µM; with SN12C renal, above 100 µM.
For `CC(=O)NNc1nc(C)c(C(/C=C/c2ccc([N+](=O)[O-])cc2)=N/NC(N)=O)s1`, the TGI in the test on BT-549 breast, in the test on RPMI-8226 leukemia, in the test on KM12 colon, in the test on OVCAR-8 ovarian, in the test with UACC-62 melanoma and in the test with MCF7 breast was above 100 µM in each case. For the same compound, the TGI with A549 NSCLC, in the test with MOLT-4 leukemia, in the test on SR leukemia and in the test on SN12C renal was above 100 µM throughout.
